Target: T1, alpha2B receptor (Homo sapiens, UniProt P18089)
T1 construct: expressed in transfected cells; host or cells: NIH-3T3
T1 sequence (P18089 1-450): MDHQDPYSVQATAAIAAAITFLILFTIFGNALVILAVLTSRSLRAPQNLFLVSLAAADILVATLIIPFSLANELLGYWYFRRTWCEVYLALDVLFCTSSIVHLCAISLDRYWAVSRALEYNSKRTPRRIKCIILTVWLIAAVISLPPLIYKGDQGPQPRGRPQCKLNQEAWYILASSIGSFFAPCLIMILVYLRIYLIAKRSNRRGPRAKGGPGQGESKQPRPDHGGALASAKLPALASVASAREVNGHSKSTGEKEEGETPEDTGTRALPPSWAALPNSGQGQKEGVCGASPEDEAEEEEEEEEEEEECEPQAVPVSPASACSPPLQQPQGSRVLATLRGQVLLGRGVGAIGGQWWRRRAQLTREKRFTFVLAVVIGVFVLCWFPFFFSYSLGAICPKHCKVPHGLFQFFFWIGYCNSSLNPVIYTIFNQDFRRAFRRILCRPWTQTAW
Test: Receptor Selection and Amplification Technology (RSAT) assay, alpha2B
Type: cell-based
Settings: NIH-3T3 cells; for EC50: NA = not active at concentrations less than 10 micromolar, read-out: RSAT EC50 (nM) Alpha 2B; for fraction of activity of the standard (brimonidine) attained, Alpha 2B (number in parenthesis): ratio of maximal effect to that of standard full agonist brimonidine
Excerpt: The compounds of the invention are agonists of α2 adrenergic receptors, particularly they tend to be specific or selective agonists of α2B and/or to a lesser extent α2C adrenergic receptors, in preference over α2A adrenergic receptors. […] Al., 1995, Pharmacol. Toxicol. 76, pp. 308-311 (incorporated herein by reference) and is also described below. Another reference pertinent to this assay is Conklin et al. (1993) Nature 363:274-6, also incorporated herein by reference.
The RSAT assay measures a receptor-mediated loss of contact inhibition that results in selective proliferation of receptor-containing cells in a mixed population of confluent cells. The increase in cell number is assessed with an appropriate transfected marker gene such as β-galactosidase, the activity of which can be easily measured in a 96-well format. Receptors that activate the G protein, Gq, elicit this response. Alpha2 receptors, which normally couple to Gi, activate the RSAT response when coexpressed with a hybrid Gq protein that has a Gi receptor recognition domain, called Gq/i5^2.
NIH-3T3 cells are plated at a density of 2×10^6 cells in 15 cm dishes and maintained in Dulbecco's modified Eagle's medium supplemented with 10% calf serum. One day later, cells are cotransfected by calcium phosphate precipitation with mammalian expression plasmids encoding p-SV-β-galactosidase (5-10 μg), receptor (1-2 μg) and G protein (1-2 μg). 40 μg salmon sperm DNA may also be included in the transfection mixture. Fresh media is added on the following day and 1-2 days later, cells are harvested and frozen in 50 assay aliquots. Cells are thawed and 100 μl added to 100 μl aliquots of various concentrations of drugs in triplicate in 96-well dishes. Incubations continue 72-96 hr at 37°. After washing with phosphate-buffered saline, β-galactosidase enzyme activity is determined by adding 200 μl of the chromogenic substrate (consisting of 3.5 mM o-nitrophenyl-β-D-galactopyranoside and 0.5% nonidet P-40 in phosphate buffered saline), incubating overnight at 30 and measuring optical density at 420 nm. The absorbance is a measure of enzyme activity, which depends on cell number and reflects a receptor-mediated cell proliferation. The EC50 and maximal effect of each drug at each alpha2 receptor is determined. The efficacy or intrinsic activity is calculated as a ratio of the maximal effect of the drug to the maximal effect of a standard full agonist for each receptor subtype. Brimonidine, also called […], the chemical structure of which is shown below, is used as the standard agonist for the alpha2A, alpha2B and alpha2C receptors. [drawing 6]
The results of the RSAT assay with several exemplary compounds of the invention are disclosed in Table 3. […] NA stands for “not active” at concentrations less than 10 micromolar. As is known EC50 is the concentration at which half of a given compound's maximal activity is observed. It can be seen from the table that the compounds of the invention are specific or selective agonists of α2B and/or α2C adrenergic receptors, with no agonist like activity or only with insignificant agonist-like activity on α2A receptors.

Structure (SMILES) | EC50 [nM] | fraction of activity of the standard (brimonidine) attained, Alpha 2B (number in parenthesis)
C[C@@H]1CCC[C@@H]1NC(=S)NCCO (relative stereo) [Compound 12, 1-(2-Hydroxy-ethyl)-3-(cis-2-methyl-cyclopentyl)-thiourea] | 1530 | (0.47)
C[C@H]1CCC[C@H](NC(=S)NCCO)C1 (relative stereo) [Compound 38, (trans)-1-(2-Hydroxy-ethyl)-3-(3-methyl-cyclohexyl)-thiourea] | 1150 | (0.4)
C[C@H]1CCC[C@H](NC(=S)NCCO)C1 (single isomer, unassigned) [Compound 39, (cis)-1-(2-Hydroxy-ethyl)-3-(3-methyl-cyclohexyl)-thiourea] | 80 | (0.65)
OCCNC(=S)NCC1CCCCC1 [Compound 1, 1-Cyclohexylmethyl-3-(2-hydroxy-ethyl)-thiourea] | 204 | (0.61)
CC(C)[C@@H]1CC[C@@H](C)C[C@H]1NC(=S)NCCO [Compound 2, 1-(2-Hydroxy-ethyl)-3-(1R,2S,5R-2-isopropyl-5-methyl-cyclohexyl)-thiourea] | 189 | (0.54)
OCCNC(=S)NCC1=CCCCC1 [Compound 3, 1-(Cyclohex-1-enylmethyl)-3-(2-hydroxy-ethyl)-thiourea] | 877 | (0.8)
OCCNC(=S)NCC1C=CCCC1 (stereo not drawn) [Compound 4, 1-(Cyclohex-2-enylmethyl)-3-(2-hydroxy-ethyl)-thiourea] | 66 | (0.63)
CCC[C@@H]1CCCC[C@H]1NC(=S)NCCO [Compound 5, 1-(2-Hydroxy-ethyl)-3-((1R,2R)-2-propyl-cyclohexyl)-thiourea] | 216 | (0.49)
OCCNC(=S)NC1CCCCC1 [Compound 6, 1-Cyclohexyl-3-(2-hydroxy-ethyl)-thiourea] | 311 | (0.28)
OCCNC(=S)N[C@H]1CC[C@H](O)CC1 [Compound 7, 1-(4-Hydroxy-cyclohexyl)-3-(2-hydroxy-ethyl)-thiourea] | > 2000 | (0.32)
OCCNC(=S)NCC1CCCC1 [Compound 9, 1-Cyclopentylmethyl-3-(2-hydroxy-ethyl)-thiourea] | 441 | (0.62)
OCCNC(=S)NCC1CCCCCC1 [Compound 10, 1-Cycloheptylmethyl-3-(2-hydroxy-ethyl)-thiourea] | 355 | (0.54)
CC1CC=CCC1CNC(=S)NCCO (stereo not drawn) [Compound 11, 1-(2-hydroxy-ethyl)-3-(6-methyl-cyclohex-3-enylmethyl)-thiourea] | 20 | (0.93)
CC1=CC(NC(=S)NCCO)CC1 (stereo not drawn) [Compound 13, 1-(2-Hydroxy-ethyl)-3-(3-methyl-cyclopent-2-enyl)-thiourea] | 111 | (0.66)
CC1=CC(NC(=S)NCCO)CCC1 (stereo not drawn) [Compound 16, 1-(2-Hydroxy-ethyl)-3-(3-methyl-cyclohex-2-enyl)-thiourea] | 58 | (0.54)
OCCNC(=S)NCC1=C(Cl)CCCC1 [Compound 17, 1-(2-chloro-cyclohex-1-enylmethyl)-3-(2-hydroxy-ethyl)thiourea] | 15 | (0.63)
OCCNC(=S)NCC1=C(Br)CCCC1 [Compound 18, 1-(2-Bromo-cyclohex-1-enylmethyl)-3-(2-hydroxy-ethyl)-thiourea] | 10 | (0.77)
CCC1=CC(CNC(=S)NCCO)CCC1 (stereo not drawn) [Compound 19, 1-(2-Hydroxy-ethyl)-3-(3-ethyl-cyclohex-2-enylmethyl)-thiourea] | 55 | (0.46)
CC1=CC(CNC(=S)NCCO)CCC1 (stereo not drawn) [Compound 20, 1-(2-Hydroxy-ethyl)-3-(3-methyl-cyclohex-2-enylmethyl)-thiourea] | 37 | (0.78)
CC1=CCCCC1CNC(=S)NCCO (stereo not drawn) [Compound 21, 1-(2-Hydroxy-ethyl)-3-(2-methyl-cyclohex-2-enylmethyl)-thiourea] | 72 | (0.87)
CCC1=CCCCC1CNC(=S)NCCO (stereo not drawn) [Compound 22, 1-(2-Hydroxy-ethyl)-3-(2-ethyl-cyclohex-2-enylmethyl)-thiourea] | 126 | (0.73)
CC1=C(CNC(=S)NCCO)CCCC1 [Compound 23, 1-(2-Hydroxy-ethyl)-3-(2-methyl-cyclohex-1-enylmethyl)-thiourea] | 125 | (0.68)
CCC1=C(CNC(=S)NCCO)CCCC1 [Compound 24, 1-(2-Hydroxy-ethyl)-3-(2-ethyl-cyclohex-1-enylmethyl)-thiourea] | 772 | (0.71)
CCCCC1=CCCC1CNC(=S)NCCO (stereo not drawn) [Compound 26, 1-(2-Butyl-cyclopent-2-enylmethyl)-3-(2-hydroxy-ethyl)-thiourea] | 816 | (0.48)
CC1C=C(CNC(=S)NCCO)CC1 (stereo not drawn) [Compound 28, 1-(2-Hydroxy-ethyl)-3-(3-methyl-cyclopent-1-enylmethyl)-thiourea] | 544 | (0.52)
OCCNC(=S)NC1CCCC=C1Br (stereo not drawn) [Compound 29, 1-(2-Bromo-cyclohex-2-enyl)-3-(2-Hydroxy-ethyl)-thiourea] | 90 | (0.84)
CCCC1=CCCCC1NC(=S)NCCO (stereo not drawn) [Compound 30, 1-(2-Hydroxy-ethyl)-3-(2-propyl-cyclohex-2-enyl)-thiourea] | 78 | (0.71)
CCC1=CC(NC(=S)NCCO)CCC1 (stereo not drawn) [Compound 32, 1-(2-Hydroxy-ethyl)-3-(3-ethyl-cyclohex-2-enyl)-thiourea] | 96 | (0.37)
CC[C@H]1CC[C@H](NC(=S)NCCO)CC1 [Compound 36, (trans)-1-(2-Hydroxy-ethyl)-3-(4-ethyl-cyclohexyl)-thiourea] | 97 | (0.53)
CC1CCCCC1NC(=S)NCCO (stereo not drawn) [Compound 41, 1-(2-Methyl-cyclohexyl)-3-(2-hydroxy-ethyl)-thiourea] | 27 | (0.78)

— patent publication US6534542B2, “(2-hydroxy)ethyl-thioureas useful as modulators of α2B adrenergic receptors” (Allergen Sales, Inc., priority 2001, dated 2003)
